Numbers after ± are expanded uncertainties.
Conditions: Liquid; Resistive pulse heating

| Critical pressure | Critical temperature | Compound |
| --- | --- | --- |
| 1820 ± 70 kPa | 868 ± 13 K | OCCOCCOCCOCCOCCOCCO [3,6,9,12,15-pentaoxaheptadecane-1,17-diol] |
| 2130 ± 90 kPa | 842 ± 13 K | OCCOCCOCCOCCOCCO [3,6,9,12-tetraoxatetradecane-1,14-diol] |
| 3570 ± 140 kPa | 788 ± 12 K | OCCOCCOCCO [triethylene glycol] |

| Compound | Critical pressure | Critical temperature |
| --- | --- | --- |
| OCCOCCO [diethylene glycol] | 4830 ± 190 kPa | 753 ± 11 K |
